According to US5994336A, “Method of inhibiting proliferation of cells by administering an aminosterol compound” (priority 1995, dated 1999):
Converted amounts (≈) assume the structure as drawn. “Also recorded” adds a separate entry of the source.

Assays:
[1] = tested on: C. albicans; assay: Antibiotic activity, MIC; type: cell-based; settings: Candida albicans
From the text: (§1) Thus, it is possible to achieve an antimicrobial steroid with or without squalamine-like pharmacological activity.

[2] = tested on: E. coli; assay: Antibiotic activity, MIC; type: cell-based; settings: Escherichia coli
From the text: as §1

[3] = tested on: P. aerug; assay: Antibiotic activity, MIC; type: cell-based
From the text: as §1

[4] = tested on: S. aureus; assay: Antibiotic activity, MIC; type: cell-based; settings: Staphylococcus aureus
From the text: as §1

[5] = MTT assay (Table II); type: cell-based; settings: read-out: Minimum Effective Concentration, MTT assay
From the text: (§2) As set forth in Table II, which follows Table I, the activities of natural and synthetic aminosterols in the different assays vary. In light of the foregoing, it is now possible to screen for steroids with or without squalamine-like pharmacological activity.

[6] = tested on: Lic; assay: MTT Lic (Table II); type: cell-based; settings: read-out: Minimum Effective Concentration, MTT Lic
From the text: as §2

[7] = tested on: human microvascular cells; assay: Inhibition of endothelial cell cord formation in vitro; type: cell-based; settings: Homo sapiens, Endothelial cell; Table II; read-out: Minimum Effective Concentration, Cord Formation
From the text: Endothelial cells have the capacity in vitro to form tubular aggregates resembling capillaries in various early stages of formation. This conversion occurs under relatively specific conditions, in which essential growth factors along with an effective substratum are provided. It has been shown that both the interaction of growth factors with the endothelial cell and its attachment to a substratum activate the NHE. The activation of this exchanger is believed to be required for subsequent morphologic transformation of the endothelial cell into a multicellular tubular structure.
To assess the effect of compounds on the cord-like structures formed by human microvascular cells when plated in the presence of VEGF (Vascular Endothelial Growth Factor) and basic fibroblast growth factor on a collagen matrix, a standard cord formation assay was used.

[8] = tested on: vitelline capillaries; assay: Chick embryo vitelline capillary regression assay; type: in vivo
Description: Using the chick embryo vitelline capillaries assay, compounds were tested for their ability to induce capillary regression. Each compound was applied in 0.1 ml of 15% Ficol 400 and PBS onto the embryo, and vascular regression was assessed after 60 minutes.
The 3-day chick embryo consists of an embryonic disc from which numerous vessels emerge and return, forming a "FIG. 8"-shaped structure--the embryo in the center with vascular loops extending outward over both poles. […] Following a lag period of around 15 minutes, the constriction of continuity between capillary and secondary vessels, generally on the "venous" side, was observed. Continued pulsatile blood flow progressed, resulting in a "swelling" of the blind tube, followed by a pinching off of the remaining connection and formation of an enclosed vascular sac resembling a "blood island." This process progressed until only the largest vessels remained intact.

[9] = tested on: Xenopus tadpole, stage 59-60; assay: Tadpole assay; type: in vivo, Xenopus laevis; settings: 10 μg/ml; for pharmacological response in tadpole (words): stage 59-60
From the text: For example, substances that destroy all of the animal's epithelium, both adult and embryonic, could be regarded as toxic.
The volume of liquid is sufficient for the animal to swim freely and drink from the solution. […] If the volume of liquid is not sufficient to permit oral intake, the effects that are observed would result from absorption through the surface epithelium.
In another embodiment of this assay, a solution of a compound in water can be injected directly into the abdomen of the animal using standard techniques.
After an amount of time, typically about 60 minutes, the occlusion of blood flow through capillaries in the tadpole's tail are observed under an inverted microscope at a magnification of roughly 100×.
In the assay, each of the steroids was dissolved in 100 ml of distilled water at a concentration of 10 μg/ml. Stage 59-60 Xenopus tadpoles were introduced and evaluated by light microscopy and gross observation 1 hour later.

[10] = Effect on fasting blood glucose in mice; type: in vivo, mouse; settings: i.v.
Description: To study the effect of steroid administrator or the NHE responsible for secretion of insulin, several of the aminosterols from shark liver were administered to fasting mice. Male CD-1 mice were assigned to one of four treatment groups. Whole blood glucose was tested using glucometer (Lifescan Glucometer II and One Touch test strips). Statistical analysis was via one-way analysis of variance (ANOVA) followed by subsequent Bonferonni's t-test.

[11] = tested on: Human ovarian carcinoma SKOV3; assay: Growth inhibition in vitro (Table 7); type: cell-based
Description: As set forth in Table 7 below, all malignant tumors evaluated in tissue culture, endothelial cells and vascular smooth muscle cells were sensitive to inhibition. Thus, compound 1436 has application in the control of growth factor dependent proliferation of many types of tissue.
Using the assay described above, the anticancer effects of compound 1437 against several cancer lines was assessed.

[12] = tested on: NHE1β; settings: nucleated erythrocyte isoform; cited from earlier work
[13] = molecular target: T1, rabbit NHE3 (Oryctolagus cuniculus, UniProt P26432); settings: existing agents such as amiloride; cited from earlier work
T1 construct: BCECF internal pH recovery
T1 sequence (P26432 30-832): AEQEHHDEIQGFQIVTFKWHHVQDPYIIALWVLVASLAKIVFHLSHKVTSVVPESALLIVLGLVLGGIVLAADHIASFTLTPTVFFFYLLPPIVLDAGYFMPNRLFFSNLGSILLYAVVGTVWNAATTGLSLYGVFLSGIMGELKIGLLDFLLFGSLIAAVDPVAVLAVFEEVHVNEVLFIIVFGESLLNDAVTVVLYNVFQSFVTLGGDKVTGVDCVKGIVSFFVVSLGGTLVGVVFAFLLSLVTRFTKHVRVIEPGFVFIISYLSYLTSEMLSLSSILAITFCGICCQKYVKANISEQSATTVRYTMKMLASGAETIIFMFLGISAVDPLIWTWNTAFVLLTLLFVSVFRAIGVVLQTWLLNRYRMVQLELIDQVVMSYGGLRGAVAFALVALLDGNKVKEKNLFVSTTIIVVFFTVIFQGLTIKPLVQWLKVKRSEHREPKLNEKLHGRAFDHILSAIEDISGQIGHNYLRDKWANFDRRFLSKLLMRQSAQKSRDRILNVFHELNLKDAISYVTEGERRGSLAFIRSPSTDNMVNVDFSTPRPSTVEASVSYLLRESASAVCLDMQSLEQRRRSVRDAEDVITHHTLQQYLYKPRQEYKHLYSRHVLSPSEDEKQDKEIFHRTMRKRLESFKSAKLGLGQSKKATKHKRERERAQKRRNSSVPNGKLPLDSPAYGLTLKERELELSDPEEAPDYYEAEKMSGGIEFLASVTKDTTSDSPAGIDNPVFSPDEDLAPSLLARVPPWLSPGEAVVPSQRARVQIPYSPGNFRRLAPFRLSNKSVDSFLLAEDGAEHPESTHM

CC(O)[C@H]1CC[C@H]2[C@@H]3CC[C@H]4C[C@@H](NCCCNCCCCN)CC[C@]4(C)[C@H]3CC[C@]12C (stereo partly shown)
MIC [1]: 64 µg/mL (≈ 143 µM) | MIC [2]: 32 to 64 µg/mL (≈ 71.5 to 143 µM) | MIC [3]: 256 µg/mL (≈ 572 µM) | MIC [4]: 4 µg/mL (≈ 8.93 µM)

CC(O)[C@H]1CC[C@H]2[C@@H]3CC[C@H]4C[C@H](NCCCNCCCCN)CC[C@]4(C)[C@H]3CC[C@]12C (stereo partly shown)
MIC [1]: 128 µg/mL (≈ 286 µM) | MIC [2]: 64 µg/mL (≈ 143 µM) | MIC [3]: 128 µg/mL (≈ 286 µM) | MIC [4]: 16 µg/mL (≈ 35.7 µM)

COC(=O)CCC(C)[C@H]1CCC2C3C(CC[C@@]21C)[C@@]1(C)CC[C@@H](NCCN)C[C@H]1C[C@H]3O (stereo partly shown)
minimal effective concentration [5]: 2.5 µg/mL

CC(CC[C@@H](OS(=O)(=O)O)C(C)C)[C@H]1CCC2C3C(CC[C@@]21C)[C@@]1(C)CC[C@H](NCCCNCCCCN)C[C@@H]1C[C@H]3O (stereo partly shown)
minimal effective concentration [6]: 13.2 µg/mL | minimal effective concentration [7]: 0.01 to 0.1 µg/mL

CC(CC[C@@H](OS(=O)(=O)O)C(C)C)[C@H]1CCC2C3C(CC[C@@]21C)[C@@]1(C)CC[C@H](NCCCNCCCCNCCCN)C[C@@H]1C[C@H]3O (stereo partly shown)
minimal effective concentration [6]: 16.7 µg/mL

CC(COS(=O)(=O)O)C(=O)CC[C@@H](C)[C@H]1CC[C@H]2[C@@H]3[C@H](O)C[C@H]4C[C@@H](NCCCNCCCCN)CC[C@]4(C)[C@H]3CC[C@]12C (single isomer, unassigned) [Compound 1360]
effect on circulating embryonic blood ([8]; within 20 minutes): the blood circulating through the embryonic vessels exhibited a brighter red color | pharmacological response in tadpole (words) [9]: Swelling and lysis of certain erythrocytes occurred, resulting in accumulation of nuclei within certain small vessels of the tail. Subsequent tissue breakdown occurred in areas of tail surrounding these nuclear plugs | pharmacological response in tadpole (words) ([9]; listed as compound 1360): extensive vasocclusion occurred within 60 minutes throughout the tail

CC(C)C(CO)(CC[C@@H](C)[C@H]1CC[C@H]2[C@@H]3[C@H](O)C[C@H]4C[C@@H](NCCCNCCCCN)CC[C@]4(C)[C@H]3CC[C@]12C)OS(=O)(=O)O (single isomer, unassigned) [Compound 1437]
blood glucose effect [10]: caused hyperglycemia in mice | anticancer activity [11]: exhibit anticancer activity | tissues or functions not affected in tadpole [9]: Animal was otherwise active, with little tissue breakdown noted | pharmacological response in tadpole (words) [9]: Epithelium covering the embryonic portions of the animal, such as the tail and antennae, began to slough off in sheets; also recorded: dramatic effect on the embryonic epithelium covering the tadpole tale

N=C(N)NC(=O)c1nc(Cl)c(N)nc1N [Amiloride]
inhibition of NHE1β [12]: inhibited by high concentrations | effect on Vmax of NHE3 (existing agents) [13]: affected only Vmax

CC(C)CCC[C@@H](C)[C@H]1CC[C@H]2[C@@H]3[C@H](O)C[C@H]4C[C@H](NCCCNCCCCN)CC[C@]4(C)[C@H]3CC[C@]12C [Compound 370]
pharmacological response in tadpole (words) [9]: pharmacologic activity similar to that seen for FX 3

CC(C)CCC[C@@H](C)[C@H]1CC[C@H]2[C@@H]3[C@H](O)C[C@H]4C[C@@H](NCCCNCCCCN)CC[C@]4(C)[C@H]3CC[C@]12C [Compound 371]
pharmacological response in tadpole (words) [9]: effects like those produced by compound 1436

COC(=O)CC[C@@H](C)[C@H]1CC[C@H]2[C@@H]3[C@H](O)C[C@@H]4C[C@@H](NCCN)CC[C@]4(C)[C@H]3CC[C@]12C [Compound 409]
pharmacological response in tadpole (words) [9]: functionally similar to compound 1437

COC(=O)CC[C@@H](C)[C@H]1CC[C@H]2[C@@H]3[C@H](O)C[C@@H]4C[C@H](NCCN)CC[C@]4(C)[C@H]3CC[C@]12C [Compound 410]
pharmacological response in tadpole (words) [9]: functionally similar to compound 1437

C[C@H](CCC(=O)O)[C@H]1CC[C@H]2[C@@H]3[C@H](O)C[C@@H]4C[C@H](NCCCNCCCCNCCCN)CC[C@]4(C)[C@H]3CC[C@]12C [Compound 412]
pharmacological response in tadpole (words) [9]: pharmacologic activity similar to that seen for FX 3

C[C@H](CCC(=O)O)[C@H]1CC[C@H]2[C@@H]3[C@H](O)C[C@@H]4C[C@@H](NCCCNCCCCNCCCN)CC[C@]4(C)[C@H]3CC[C@]12C [Compound 413]
pharmacological response in tadpole (words) [9]: effects like those produced by compound 1436

C[C@H](CCC(=O)O)[C@H]1CC[C@H]2[C@@H]3[C@H](O)C[C@@H]4C[C@H](NCCN)CC[C@]4(C)[C@H]3CC[C@]12C [Compound 414]
pharmacological response in tadpole (words) [9]: pharmacologic activity similar to Fraction 1

C[C@H](CCC(=O)O)[C@H]1CC[C@H]2[C@@H]3[C@H](O)C[C@@H]4C[C@@H](NCCN)CC[C@]4(C)[C@H]3CC[C@]12C [Compound 415]
activity on vitelline capillaries [8]: especially active

COC(=O)CC[C@@H](C)[C@H]1CC[C@H]2[C@@H]3CC[C@@H]4C[C@H](NCCN)CC[C@]4(C)[C@H]3C[C@H](O)[C@]12C [Compound 416]
pharmacological response in tadpole (words) [9]: functionally similar to compound 1437

COC(=O)CC[C@@H](C)[C@H]1CC[C@H]2[C@@H]3C[C@@H](O)[C@H]4C[C@H](NCCN)CC[C@]4(C)[C@H]3CC[C@]12C [Compound 431]
pharmacological response in tadpole (words) [9]: functionally similar to compound 1437

COC(=O)CC[C@@H](C)[C@H]1CC[C@H]2[C@@H]3C[C@@H](O)[C@H]4C[C@@H](NCCN)CC[C@]4(C)[C@H]3CC[C@]12C [Compound 432]
pharmacological response in tadpole (words) [9]: functionally similar to compound 1437

C[C@H](CCC(=O)O)[C@H]1CC[C@H]2[C@@H]3C[C@@H](O)[C@H]4C[C@@H](NCCN)CC[C@]4(C)[C@H]3CC[C@]12C [Compound 433]
pharmacological response in tadpole (words) [9]: functionally similar to compound 1437

COC(=O)CC[C@@H](C)[C@H]1CC[C@H]2[C@@H]3CC[C@H]4C[C@H](NCCCNCCCCNCCCN)CC[C@]4(C)[C@H]3CC[C@]12C [Compound 458]
pharmacological response in tadpole (words) [9]: pharmacologic activity similar to that seen for FX 3

COC(=O)CC[C@@H](C)[C@H]1CC[C@H]2[C@@H]3CC[C@H]4C[C@@H](NCCCNCCCCNCCCN)CC[C@]4(C)[C@H]3CC[C@]12C [Compound 459]
pharmacological response in tadpole (words) [9]: pharmacologic activity similar to that seen for FX 3

COC(=O)CC[C@@H](C)[C@H]1CC[C@H]2[C@@H]3C[C@@H](O)[C@H]4C[C@H](NCCCNCCCCNCCCN)CC[C@]4(C)[C@H]3CC[C@]12C [Compound 465]
pharmacological response in tadpole (words) [9]: pharmacologic activity similar to that seen for FX 3

COC(=O)CC[C@@H](C)[C@H]1CC[C@H]2[C@@H]3C[C@@H](O)[C@H]4C[C@@H](NCCCNCCCCNCCCN)CC[C@]4(C)[C@H]3CC[C@]12C [Compound 466]
pharmacological response in tadpole (words) [9]: pharmacologic activity similar to that seen for FX 3

CC(C)CCC[C@@H](C)[C@H]1CC[C@H]2[C@@H]3[C@H](O)C[C@H]4C[C@H](N)CC[C@]4(C)[C@H]3CC[C@]12C [Compound 1363]
pharmacological response in tadpole (words) [9]: pharmacologic activity similar to Fraction 1

CC(C)CCC[C@@H](C)[C@H]1CC[C@H]2[C@@H]3CC[C@H]4C[C@@H](NCCCNCCCCNCCCN)CC[C@]4(C)[C@H]3CC[C@]12C [drawing 86]
minimal effective concentration [5]: 3 µg/mL

CC(C)CCC[C@@H](C)[C@H]1CC[C@H]2[C@@H]3[C@H](O)C[C@H]4C[C@H](NCCCNCCCCN)CC[C@]4(C)[C@H]3CC[C@]12C [drawing 94]
minimal effective concentration [5]: 4 µg/mL
